# In patent US20260144259A1, “CRYSTAL OF 2-(5-CYCLOPROPYL-3-(ETHYLSULFONYL)PYRIDIN-2-YL)-5-((TRIFLUOROMETHYL)SULFINYL)BENZO[D]OXAZOLE” (SUMITOMO CHEMICAL COMPANY, LIMITED, priority 2022, published 2026):
# Experiments:
# Assay type in all cases: in vivo
# [1] = system: brown planthoppers (Nilaparvata lugens); assay: Test method 5: sprayed rice seedling with brown planthoppers; conditions: 144 h, rice sprayed 10 mL/seedling, third instar larvae, after 6 days, 25° C., read-out: mortality of insects
# Description: (§1) Next, an efficacy of the Type 1 crystal of Compound (1) on controlling harmful arthropods is shown by Test examples. The following tests were conducted at 25° C.
# (§2) Test compound is made to a formulation according to a similar method to that described in the Formulation example 1, and thereto is added water containing 0.03 v/v % of Shindain (registered trademark) to prepare a dilution containing a prescribed concentration of the test compound.
# Rice (Oryza sativa) seedling (on the developmental stage of the second leaf) is planted in a cup, and the dilutions are sprayed onto the seedling at a ratio of 10 mL/seedling. Thereafter, twenty (20) brown planthoppers (Nilaparvata lugens) at the third instar larval stage are released into the cup. After 6 days, the number of the surviving insects is counted, and the mortality of insects is calculated by the following equation.
# [2] = system: diamondback moths (Plutella xylostella); assay: Test method 3: sprayed cabbage leaves fed to diamondback moths; conditions: 120 h, cabbage sprayed 20 mL/seedling, second instar larvae, after 5 days, 25° C., read-out: mortality of insects
# Description: as §1, §2
# Cabbage (Brassicae oleracea) seedling (on the developmental stage of the second to third true leaf) is planted in a cup, and the dilutions are sprayed onto the seedling at a ratio of 20 mL/seedling. Thereafter, the stem and leaf thereof are cut out and then are placed into a cup that is lined with a filter paper. Five (5) diamondback moths (Plutella xylostella) at the second instar larval stage are released into the cup. After 5 days, the number of the surviving insects is counted, and the mortality of insects is calculated by the following equation.
# [3] = system: common house mosquitos (Culex pipiens pallens); assay: Test method 4: common house mosquito larvae released into dilution; conditions: 24 h, last instar larvae released into dilution, after 1 day, 25° C., read-out: mortality of insects
# Description: as §1
# Test compound is made to a formulation according to a similar method to that described in the Formulation example 1, and thereto is added water to prepare a dilution containing a prescribed concentration of the test compound.
# Into the dilution, 30 common house mosquitos (Culex pipiens pallens) at the last instar larval stage are released, and after 1 day, the state of the common house mosquito larvae is examined, and the mortality of insects is calculated by the following equation.
# [4] = system: cotton aphids (Aphis gossypii); assay: Test method 1: spray on cucumber seedling infested with cotton aphids; conditions: 500 ppm; sprayed 10 mL/seedling on cucumber one day after release of about 30 aphids (all stages); after 5 days; 25° C.
# Description: Next, an efficacy of the Type 1 crystal of Compound (1) on controlling harmful arthropods is shown by Test examples. The following tests were conducted at 25° C. Test compound is made to a formulation according to a similar method to that described in the Formulation example 1, and thereto is added water containing 0.03 v/v % of Shindain (registered trademark) to prepare a dilution containing a prescribed concentration of the test compound. Cucumber (Cucumis sativus) seedling (on the developmental stage of the second true leaf) is planted in a cup, and approximately 30 cotton aphids (Aphis gossypii) (all stages of life) are released onto the seedling. After one day, the dilutions are sprayed onto the seedling at a ratio of 10 mL/seedling. After 5 days, the number of the surviving insects is examined and the controlling value is calculated by the following equation. […]
# [5] = system: Argentine ant (Linepithema humile); assay: Test method 7: sugar-water filter paper test on Argentine ant workers; conditions: 0.2 ppm, 0.7 ml dilution in sugar water on filter paper, after 6 days, 25° C.
# Description: as §1
# (§3) Test compound is made to a formulation according to a similar method to that described in the Formulation example 1, and thereto is added 1.8 g of sucrose, followed by adding 3% sugar water to prepare a dilution containing a prescribed concentration of the test compound.
# A filter paper having a diameter of 5.5 cm is spread on the bottom of the cup, and then 0.7 ml of the dilutions are added dropwise to the filter paper, and ten (10) Argentine ant (Linepithema humile) workers are released into the cup, and the cup is covered with the lid. After 6 days, the number of the dead and distressed individuals of Argentine ant workers are counted, and the ratio of distressed and dead insects (%) is calculated by the following equation.
# (§4) Here the dead individual is one whose behavior has completely stopped, and a distressed individual is one that cannot stand up when placed on its back and also cannot walk.
# [6] = system: pharaoh ant (Monomorium pharaonis); assay: Test method 8: sugar-water filter paper test on pharaoh ant workers; conditions: 0.05 ppm, 0.7 ml dilution in sugar water on filter paper, after 2 days, 25° C.
# Description: as §1, §3
# A filter paper having a diameter of 5.5 cm is spread on the bottom of the cup, and then 0.7 ml of the dilutions are added dropwise to the filter paper, and ten (10) pharaoh ant (Monomorium pharaonis) workers are released into the cup, and the cup is covered with the lid. After 2 days, the number of the dead and distressed individuals of pharaoh ant workers are counted, and the ratio of distressed and dead insects (%) is calculated by the following equation.
# as §4
# [7] = system: common house mosquito (Culex pipiens pallens); assay: Test method 10: sugar-water filter paper test on common house mosquito female adults; conditions: 0.8 ppm, 0.7 ml dilution in sugar water on filter paper, after 2 days, 25° C.
# Description: as §1, §3
# A filter paper having a diameter of 5.5 cm is spread on the bottom of the cup, and then 0.7 ml of the dilutions are added dropwise to the filter paper, five (5) common house mosquito (Culex pipiens pallens) female adults are released into the cup, and the cup is covered with the lid. After 2 days, the number of the dead and distressed individuals of […] female adults are counted, and the ratio of distressed and dead insects (%) is calculated by the following equation.
# Here the dead individual is one whose behavior has completely stopped, and a distressed individual is one that cannot fly and also cannot walk.
# [8] = system: common cutworms (Spodoptera litura); assay: Test method 2: sprayed cabbage leaves fed to common cutworms; conditions: 120 h, cabbage sprayed 20 mL/seedling, second instar larvae, after 5 days, 25° C., read-out: mortality of insects
# Description: as §1, §2
# Cabbage (Brassicae oleracea) seedling (on the developmental stage of the second to third true leaf) is planted in a cup, and the dilutions are sprayed onto the seedling at a ratio of 20 mL/seedling. Thereafter, the stem and leaf thereof are cut out and then are placed into a cup that is lined with a filter paper. Five (5) common cutworms (Spodoptera litura) at the second instar larval stage are released into the cup. After 5 days, the number of the surviving insects is counted, and the mortality of insects is calculated by the following equation.
# [9] = system: cotton aphids (Aphis gossypii); assay: Test method 6: sprayed cucumber seedling, artificial rainfall, then cotton aphids released; conditions: 0.5 ppm; cucumber sprayed 10 mL/seedling, dried, artificial rain 10 mm/hr for 1 hour; female adults released after one day; after 5 days; 25° C.
# Description: Next, an efficacy of the Type 1 crystal of Compound (1) on controlling harmful arthropods is shown by Test examples. The following tests were conducted at 25° C. Test compound is made to a formulation according to a similar method to that described in the Formulation example 1, and thereto is added water containing 0.02 v/v % of Shindain (registered trademark) to prepare a dilution containing a prescribed concentration of the test compound. Only the second true leaves of Cucumber (Cucumis sativus) seedling (on the developmental stage of the third true leaf) are retained, and the other leaves are cut off, and the dilutions are sprayed onto the seedling at a ratio of 10 mL/seedling. After the dilution, which is treated, is dried, rain is given to the cucumber seedling with an artificial rainfall device at 10 mm/hr for 1 hour. After one day, 10 cotton aphids (Aphis gossypii) female adults are released onto the seedling. After 5 days, the number of the surviving insects is examined and the controlling value is calculated by the following equation. […]
# [10] = system: German cockroach (Blattella germanica); assay: Test method 9: sugar-water filter paper test on German cockroach male adults; conditions: 0.2 ppm, 0.7 ml dilution in sugar water on filter paper, after 5 days, 25° C.
# Description: as §1, §3
# A filter paper having a diameter of 5.5 cm is spread on the bottom of the cup, and then 0.7 ml of the dilutions are added dropwise to the filter paper, five (5) German cockroach (Blattella germanica) male adults are released into the cup, and the cup is covered with the lid. After 5 days, the number of the dead and distressed individuals of German cockroach male adults are counted, and the ratio of distressed and dead insects (%) is calculated by the following equation.
# as §4
SMILES,mortality at 500 ppm [1],mortality at 500 ppm [2],mortality at 3.5 ppm [3],controlling value [4],ratio of distressed and dead insects [5],ratio of distressed and dead insects [6],ratio of distressed and dead insects [7],mortality at 500 ppm [8],controlling value [9],ratio of distressed and dead insects [10]
"CCS(=O)(=O)c1cc(C2CC2)cnc1-c1nc2cc([S+]([O-])C(F)(F)F)ccc2o1 (stereo not drawn) [Type 1 crystal of Compound (1), 2-(5-cyclopropyl-3-(ethylsulfonyl)pyridin-2-yl)-5-((trifluoromethyl)sulfinyl)benzo[d]oxazole]",≥ 90%,≥ 80%,≥ 90%,≥ 90%,95%,100%,100%,≥ 80%,55.7%,100%
"CCS(=O)(=O)c1cc(C2CC2)cnc1-c1nc2cc([S+]([O-])C(F)(F)F)ccc2o1 (stereo not drawn) [amorphous of Compound (1), 2-(5-cyclopropyl-3-(ethylsulfonyl)pyridin-2-yl)-5-((trifluoromethyl)sulfinyl)benzo[d]oxazole]",–,–,–,–,30%,15%,20%,–,32.4%,0%
